Assay: Anti-oxidizing property: lipid peroxide elimination rate (Determiner LPO, cumene hydroperoxide)
Assay type: biochemical
Settings: concentration of 0.014%
Procedure: Purified water was added to 0.1 g of microbial melanin, synthetic melanin or sepia melanin and 0.1 g of sodium hydroxide to prepare 100 ml of solution, and the pH was adjusted to 7 with hydrochloric acid.
To 0.1 g of dl-α-tocopherol was added ethanol to prepare 100 ml of solution.
To 0.1 g of ascorbic acid was added purified water to prepare 100 ml of solution.
To 5.02 mg of an 80% cumene hydroperoxide (hereinafter abbreviated to CPO) solution was added purified water to prepare 100 ml of solution (264 nmol/ml).
The microbial melanin solution, the ascorbic acid solution, the dl-α-tocopherol solution, the synthetic melanin solution or the sepia melanin solution was added to a system in which CPO was reacted with a methylene blue derivative in the presence of hemoglobin as a catalyst, using Determiner LPO (product of Kyowa Medex Co., Ltd.) as a reaction reagent, thereby producing an equimolar amount of methylene blue which developed the color of the system. The anti-oxidizing property of the microbial melanin, ascorbic acid, dl-α-tocopherol, the synthetic melanin and the sepia melanin was determined on the basis of the degree of inhibition of the production of methylene blue. […]
In the equation, As indicates the absorbance of the test sample, Astd the absorbance of the standard sample, and AB the absorbance of the blank test sample. […]

Compound	Lipid peroxide elimination rate
Cc1c(C)c2c(c(C)c1O)CCC(C)(CCCC(C)CCCC(C)CCCC(C)C)O2 (racemic) [dl-α-tocopherol]	72.4%
O=C1O[C@H]([C@@H](O)CO)C(O)=C1O [Ascorbic acid, ascorbic acid]	97.4%
